Measured values taken from US20080194491A1, “Methods of Diagnosing, Preventing, and Treating Early Onset of Pulmonary Hypertension” (priority 2002, published 2008).

Experiments:
mammary epithelial cells = conditions: absence of extracellular matrix; cited from earlier work
lung apoptosis after MCT = test: Early caspase inhibition after MCT: lung apoptosis by TUNEL assay; type: in vivo, Rats
Description: The methods set out in Example 3 were employed. In this set of experiments, the inventors tried to establish the effect of apoptosis inhibitors on the early development of the apoptotic pathways. They blocked the caspase activity at a much earlier time point (18 hours post MCT injection and another injection 24 hours after that) using two classes of caspase inhibitors, namely Z-Asp (2.5 mg/Kg) and Z-VAD (1.5 mg/Kg; see FIG. 10 for details). Rats were sacrificed 24, 48 and 72 hours post last dose of inhibitors/DMSO injection and lungs were collected for histology and activity assay. Apoptosis were measured by both TUNEL and caspase activity assays, as previously described.

T-lymphocyte cell line = conditions: cited from earlier work
motoneurons = conditions: in vitro and in vivo; cited from earlier work
[1] = system: Human pulmonary artery epithelial cells (HPAEC); test: HPAEC apoptosis induced by serum withdrawal (flow cytometry Annexin V, TUNEL); type: cell-based; conditions: pretreatment 100-200 ng/ml for 2 hours; flow cytometry and TUNEL assay
Description: (§1) The inventors investigated the effect of BMPR2 signaling on pulmonary endothelial cell proliferation and survival. Human pulmonary artery […] cells (HPAEC) were grown in EBM-2 medium supplemented with 2% FBS and growth factors (Clonetics). Apoptosis was induced either by serum withdrawal (see FIG. 17) or exposure of cells to TNFα. […] Apoptosis was evaluated by three independent methods: 1) flow cytometry using Annexin V, a Ca2+ dependent phospholipid-binding protein with affinity for phosphatidylserine (PS; translocation of PS from the inner leaflet of plasma membrane to the outer layer occurs during the early stage of apoptosis), 2) TUNEL assay and, 3) caspase activity assay.

[2] = system: Human pulmonary artery cells (HPAEC); test: HPAEC apoptosis induced by TNF (caspase activity assay); type: cell-based; conditions: pretreatment 100-200 ng/ml for 2 hours, TNF 10-20 ng/ml
Description: as §1

With `CC(C)(C)OC(=O)N[C@@H](CC(=O)OCc1ccccc1)C(=O)CCl` [Boc-D-(benzyl) chloromethylketone] as the molecule, how does the “cell death of mammary epithelial cells” value (mammary epithelial cells) read?
Its value is “prevented”.

With Z-VAD as the molecule, how does the inhibition of apoptosis (lung apoptosis after MCT; 48 or 72 hours after the last treatment) read?
The inhibition of apoptosis was “less potent”.

What about the inhibition of apoptosis (lung apoptosis after MCT; 24 hours after the last treatment) of the same molecule?
Its inhibition of apoptosis is “most effective”.

Which anti-Fas induced apoptosis (T-lymphocyte cell line) does the source give for acetyl-DEVD-aldehyde here?
The anti-Fas induced apoptosis was “inhibited”.

Which death of motoneurons (motoneurons) does the source give for acetyl-YVAD-aldehyde here?
Its death of motoneurons is “blocked”.

For acetyl-YVAD-chloromethylketone, which death of motoneurons (motoneurons) is on record?
Its death of motoneurons is “blocked”.

B1: BMP7: bone morphogenetic protein (protein, UniProt P18075 293-431, looked up)
Bone morphogenetic protein 7: STGSKQRSQNRSKTPKNQEALRMANVAENSSSDQRQACKKHELYVSFRDLGWQDWIIAPEGYAAYYCEGECAFPLNSYMNATNHAIVQTLVHFINPETVPKPCCAPTQLNAISVLYFDDSSNVILKKYRNMVVRACGCH
For B1, which “apoptosis induced by serum withdrawal” value [1] is on record?
Its value is “protected the cells from apoptosis”.

And the “apoptosis induced by TNF treatment” value [2]?
Its value is “protect the cells from apoptosis”.
